Laboratory results reported in patent US8575145B2, “Triazolopyridine compounds as PIM kinase inhibitors” (Array BioPharma Inc., priority 2008, dated 2013).
Where a name gives a salt, the structure may show the parent alone. Read-outs that look alike come from different tables or passages of the source.

Columns and labels:
[1] = molecular target: recombinant rat PIM-3 (Rattus norvegicus (Rat), UniProt O70444); experiment: PIM-3 Enzyme Assay; details: read-out: PIM-3 IC50; 30 μM ATP, 0.5 nM PIM-3
[2] = molecular target: GST-tagged recombinant full-length human PIM-2 (Homo sapiens (Human), UniProt Q9P1W9); experiment: PIM-2 Enzyme Assay
Sequence of GST-tagged recombinant full-length human PIM-2 (Q9P1W9 whole entry): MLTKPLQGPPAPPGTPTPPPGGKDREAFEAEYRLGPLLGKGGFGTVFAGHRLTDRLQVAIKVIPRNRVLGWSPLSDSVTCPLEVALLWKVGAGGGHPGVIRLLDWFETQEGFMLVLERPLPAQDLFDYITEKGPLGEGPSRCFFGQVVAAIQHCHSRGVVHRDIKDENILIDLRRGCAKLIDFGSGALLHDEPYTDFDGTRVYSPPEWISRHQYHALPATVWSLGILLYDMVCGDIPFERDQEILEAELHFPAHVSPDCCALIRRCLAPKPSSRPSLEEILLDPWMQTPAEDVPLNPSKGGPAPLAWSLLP

[3] = molecular target: PIM-1 (Homo sapiens (Human), UniProt P11309); experiment: PIM-1 Enzyme Assay; assay type: biochemical
Sequence of PIM-1 (P11309 whole entry, species assumed): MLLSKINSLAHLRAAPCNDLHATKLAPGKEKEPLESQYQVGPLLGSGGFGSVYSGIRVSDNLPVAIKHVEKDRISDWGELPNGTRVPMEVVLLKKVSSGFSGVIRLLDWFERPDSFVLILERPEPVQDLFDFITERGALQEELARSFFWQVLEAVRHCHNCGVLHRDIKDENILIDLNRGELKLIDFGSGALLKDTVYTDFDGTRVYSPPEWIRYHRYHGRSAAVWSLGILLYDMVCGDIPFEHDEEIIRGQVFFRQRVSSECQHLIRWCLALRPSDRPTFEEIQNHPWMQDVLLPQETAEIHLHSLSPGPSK
Procedure: The amount of radiolabeled product is then measured by liquid scintillation counting. The final buffer conditions were as follows: 20 mM K^+MOPS, pH 7.4, 10 mM MgCl2, 0.005% Tween-20, 1 mM DTT. […] Incubations were carried out for 60 min at 22° C. and quenched with 75 μL of 200 mM H3PO4, filtered through a Whatman P81 plate and washed (1×200 μL and 5×100 μL ) with 200 mM H3PO4. Liquid scintillation cocktail (50 μL ) was then added per well, and the plate was counted for 30 s/well using a TopCount NXT.
One-μL aliquots of these were then transferred to the assay mixtures above to give a final concentration of DMSO of 2%. […] For each plate, percent of control (POC) values were calculated for each well. IC50's were estimated from the POC's using a standard 4-parameter logistic model. The IC50 is defined as the concentration of inhibitor at which the POC equals 50 for the fitted curve.

[4] = read-out: PIM-2 IC50, 4 μM ATP, […] PIM-2
[5] = read-out: PIM-2 IC50, 4 μM ATP, […] PIM-2, dihydrochloride

SMILES | IC50 [2, 4] [nM] | IC50 ([3]; 35 μM ATP, 0.25 nM PIM-1) [nM] | further results
CCNCC(C)(C)COc1cccc2ccc(-c3nnc4ccccn34)nc12 [Example 27, 3-(2-([1,2,4]triazolo[4,3-a]pyridin-3-yl)quinolin-8-yloxy)-N-ethyl-2,2-dimethylpropan-1-amine di-trifluoroacetate] | 323 | – | IC50 [1]: 13 nM
FC1(COc2cccc3ccc(-c4nnc5ccc(Br)cn45)nc23)CCNCC1 [Example 77, 2-(6-bromo-[1,2,4]triazolo[4,3-a]pyridin-3-yl)-8-((4-fluoropiperidin-4-yl)methoxy)-quinoline dihydrochloride] | – | 17 | IC50 ([2]; read-out: PIM-2 IC50): 1390 nM
Fc1ccc2nnc(-c3ccc4cccc(O[C@@H]5CCNCC[C@H]5F)c4n3)n2c1 (relative stereo) [Example 102, 2-(6-fluoro-[1,2,4]triazolo[4,3-a]pyridin-3-yl)-8-((trans)-5-fluoroazepan-4-yloxy)quinoline dihydrochloride] | 440 | – | IC50 [3]: 4.9 nM
CC(C)(CN)COc1cccc2ccc(-c3nnc4ccc(-c5ccccc5)cn34)nc12 [Example 65, 2,2-Dimethyl-3-(2-(6-phenyl-[1,2,4]triazolo[4,3-a]pyridin-3-yl)quinolin-8-yloxy)propan-1-amine dihydrochloride] | 174 | 0.8 | –
FCCN1CCC(F)(COc2cccc3ccc(-c4nnc5ccccn45)nc23)CC1 [Example 105, 2-([1,2,4]triazolo[4,3-a]pyridin-3-yl)-8-((4-fluoro-1-(2-fluoroethyl)piperidin-4-yl)methoxy)quinoline dihydrochloride] | 409 | 8.7 | –
COC1(COc2cccc3ccc(-c4nnc5cc(C)ccn45)nc23)CCNCC1 [Example 125, 8((4-methoxypiperidin-4-yl)methoxy)-2-(7-methyl-[1,2,4]triazolo[4,3-a]pyridin-3-yl)quinoline di-trifluoroacetate] | 429 | 1 | –
F[C@@H]1CCNCC[C@H]1Oc1cccc2ccc(-c3nnc4ccc(C5CC5)cn34)nc12 (relative stereo) [Example 98, 2-(6-cyclopropyl-[1,2,4]triazolo[4,3-a]pyridin-3-yl)-8-((trans)-5-fluoroazepan-4-yloxy)quinoline dihydrochloride] | 661 | 0.7 | –
FC1(COc2cccc3ccc(-c4nnc5ccccn45)nc23)CNC1 [Example 107, 2-([1,2,4]triazolo[4,3-a]pyridin-3-yl)-8-((3-fluoroazetidin-3-yl)methoxy)quinoline dihydrochloride] | 1000 | 9.4 | –
FC1CNCCC1Oc1cccc2ccc(-c3nnc4ccccn34)nc12 (single isomer, unassigned) [Example 94, 2-([1,2,4]triazolo[4,3-a]pyridin-3-yl)-8-((cis)-3-fluoropiperidin-4-yloxy)quinoline dihydrochloride] | – | – | IC50 ([3]; dihydrochloride): 19.4 nM; IC50 [2, 5]: 1000 nM
FC1CCNCCC1Oc1cccc2ccc(-c3nnc4ccccn34)nc12 (centres unmarked) [Example 46, 2-([1,2,4]triazolo[4,3-a]pyridin-3-yl)-8-(5-fluoroazepan-4-yloxy)quinoline] | – | 1 | IC50 ([2]; PIM-2 IC50 (nM), 4 μM ATP, […] PIM-2): 96 nM
OCCN1CCC(F)(COc2cccc3ccc(-c4nnc5ccccn45)nc23)CC1 [Example 85, 2-(4-((2-([1,2,4]triazolo[4,3-a]pyridin-3-yl)quinolin-8-yloxy)methyl)-4-fluoropiperidin-1-yl)ethanol dihydrochloride] | – | 2 | IC50 ([2]; read-out: PIM-2 IC50): 105 nM
CCC(CO)COc1cccc2ccc(-c3nnc4ccccn34)nc12 (centres unmarked) [Example 130] | 1000 | 5.8 | –
Fc1cc(OC2CCNCC2(F)F)c2nc(-c3nnc4ccccn34)ccc2c1 (centres unmarked) [Example 93, 2-([1,2,4]triazolo[4,3-a]pyridin-3-yl)-8-(3,3-difluoropiperidin-4-yloxy)-6-fluoroquinoline dihydrochloride] | 506 | 4.4 | –
c1cncc(COc2cccc3ccc(-c4nnc5ccccn45)nc23)c1 [Example 44, 2-([1,2,4]triazolo[4,3-a]pyridin-3-yl)-8-(pyridin-3-ylmethoxy)quinoline] | 7470 | 63 | –
NC(=O)CN1CCC(F)(COc2cccc3ccc(-c4nnc5ccccn45)nc23)CC1 [Example 83, 2-(4-((2-([1,2,4]triazolo[4,3-a]pyridin-3-yl)quinolin-8-yloxy)methyl)-4-fluoropiperidin-1-yl)acetamide] | 193 | 4 | –
F[C@@H]1CNCC[C@@H]1Oc1cccc2ccc(-c3nnc4cc(Cl)ccn34)nc12 [Example 124, 2-(7-chloro-[1,2,4]triazolo[4,3-a]pyridin-3-yl)-8-((3R,4S)-3-fluoropiperidin-4-yloxy)quinoline] | 1000 | 31 | –

SMILES | IC50 [2, 4] [nM] | IC50 ([3]; 35 μM ATP, 0.25 nM PIM-1) [nM] | further results
COc1ccc2nnc(-c3ccc4cccc(OCC5(F)CCNCC5)c4n3)n2c1 [Example 109, 8((4-fluoropiperidin-4-yl)methoxy)-2-(6-methoxy-[1,2,4]triazolo[4,3-a]pyridin-3-yl)quinoline dihydrochloride] | 384 | 4.7 | –
Nc1cc(Oc2cccc3ccc(-c4nnc5ccccn45)nc23)ccn1 [Example 75, 4-(2-([1,2,4]triazolo[4,3-a]pyridin-3-yl)quinolin-8-yloxy)pyridin-2-amine] | 8940 | 263 | –
c1cc(OCC2(CC3CC3)CCNCC2)c2nc(-c3nnc4ccccn34)ccc2c1 [Example 69, 2-([1,2,4]triazolo[4,3-a]pyridin-3-yl)-8-44-(cyclopropylmethyl)piperidin-4-yl)methoxy)quinoline dihydrochloride] | 95 | – | IC50 [3]: 1.6 nM
OC1(COc2cccc3ccc(-c4nnc5ccccn45)nc23)CCNCC1 [Example 72] | 588 | 5.3 | –
FC1(COc2cccc3ccc(-c4nnc5ccccn45)nc23)CCCNC1 (centres unmarked) [Example 133, 2-([1,2,4]triazolo[4,3-a]pyridin-3-yl)-8-((3-fluoropiperidin-3-yl)methoxy)quinoline] | 142 | 1.6 | –
CCN1CCC(F)(COc2cccc3ccc(-c4nnc5ccccn45)nc23)CC1 [Example 104, 2-([1,2,4]triazolo[4,3-a]pyridin-3-yl)-8((1-ethyl-4-fluoropiperidin-4-yl)methoxy)quinoline dihydrochloride] | 191 | 3.9 | –
Nc1nccc(Oc2cccc3ccc(-c4nnc5ccccn45)nc23)n1 [Example 76, 4-(2-([1,2,4]triazolo[4,3-a]pyridin-3-yl)quinolin-8-yloxy)pyrimidin-2-amine] | 10000 | 648 | –
COC1(COc2cc(F)cc3ccc(-c4nnc5ccccn45)nc23)CCCNCC1 (centres unmarked) [Example 114, 2-([1,2,4]triazolo[4,3-a]pyridin-3-yl)-6-fluoro-8-((4-methoxyazepan-4-yl)methoxy)quinoline bis-trifluoroacetate] | 86 | 0.7 | –
CN1CC[C@@H](F)[C@H](Oc2cccc3ccc(-c4nnc5ccccn45)nc23)CC1 (relative stereo) [Example 118, 2-([1,2,4]triazolo[4,3-a]pyridin-3-yl)-8-((trans)-5-fluoro-1-methylazepan-4-yloxy)quinoline] | 330 | 3 | –
c1cc(OCC2CNCCO2)c2nc(-c3nnc4ccccn34)ccc2c1 (centres unmarked) [Example 126] | 354 | 14.2 | –
CC(C)(CNCC(F)F)COc1cccc2ccc(-c3nnc4ccccn34)nc12 [Example 135, 3-(2-([1,2,4]triazolo[4,3-a]pyridin-3-yl)quinolin-8-yloxy)-N-(2,2-difluoroethyl)-2,2-dimethylpropan-1-amine hydrochloride] | 506 | 12.6 | –
F[C@@H]1CNCC[C@@H]1Oc1cccc2ccc(-c3nnc4ccc(-c5ccccc5)cn34)nc12 (relative stereo) [Example 82, 8-((cis)-3-fluoropiperidin-4-yloxy)-2-(6-phenyl-[1,2,4]triazolo[4,3-a]pyridin-3-yl)quinoline dihydrochloride] | 1040 | – | IC50 [3]: 3 nM
c1cc(Oc2ccncc2)c2nc(-c3nnc4ccccn34)ccc2c1 [Example 74, 2-([1,2,4]triazolo[4,3-a]pyridin-3-yl)-8-(pyridin-4-yloxy)quinoline] | 1990 | 151 | –
FC1CNCCC1Oc1cccc2ccc(-c3nnc4ccccn34)nc12 (single isomer, unassigned) [Example 96, 2-([1,2,4]triazolo[4,3-a]pyridin-3-yl)-8-((trans)-3-fluoropiperidin-4-yloxy)quinoline dihydrochloride] | – | – | IC50 ([3]; dihydrochloride): 10.8 nM; IC50 [2, 5]: 1000 nM
FC1(COc2cccc3ccc(-c4nnc5ccc(-c6ccccc6)cn45)nc23)CCNCC1 [Example 81, 8-((4-fluoropiperidin-4-yl)methoxy)-2-(6-phenyl-[1,2,4]triazolo[4,3-a]pyridin-3-yl)quinoline dihydrochloride] | 142 | – | IC50 [3]: 0.45 nM
